Experimental data as given in publication PMC5897774, “Mitotic spindle association of TACC3 requires Aurora‐A‐dependent stabilization of a cryptic α‐helix” (The EMBO Journal, 2018).
Residues, ends and D or L forms follow the SMILES beside them.

Columns and labels:
CHC 1–574 = biological target: T1, CHC 1–574 (Homo sapiens, UniProt Q00610); experiment: FP binding assay, CHC 1–574; conditions: 50 nM FAM peptide, pH 7.5, 25°C, mutant vs WT phospho-TACC3^CID
T1 construct: GST (cleaved yes); made in house
T1 sequence (Q00610 1-574): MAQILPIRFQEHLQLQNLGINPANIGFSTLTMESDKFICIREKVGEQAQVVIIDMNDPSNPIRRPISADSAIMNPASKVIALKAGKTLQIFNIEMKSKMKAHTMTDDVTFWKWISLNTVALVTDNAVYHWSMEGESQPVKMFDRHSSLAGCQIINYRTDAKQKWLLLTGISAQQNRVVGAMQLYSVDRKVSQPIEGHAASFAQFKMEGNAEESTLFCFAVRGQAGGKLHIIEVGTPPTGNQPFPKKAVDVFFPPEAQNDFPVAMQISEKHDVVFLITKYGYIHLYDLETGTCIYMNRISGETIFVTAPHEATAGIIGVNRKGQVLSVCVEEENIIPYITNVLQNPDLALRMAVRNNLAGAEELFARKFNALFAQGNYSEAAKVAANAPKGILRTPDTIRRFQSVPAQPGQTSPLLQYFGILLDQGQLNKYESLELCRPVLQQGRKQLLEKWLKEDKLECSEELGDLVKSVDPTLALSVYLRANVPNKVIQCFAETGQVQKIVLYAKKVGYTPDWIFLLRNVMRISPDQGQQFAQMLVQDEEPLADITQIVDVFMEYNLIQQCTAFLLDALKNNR
Method: For CHC‐TACC3 FP assays, CHC proteins were serially diluted in FP buffer (20 mM HEPES–NaOH pH 7.5, 200 mM NaCl, 5 mM DTT). FAM‐labelled TACC3 peptide was added to a final concentration of 50 nM and incubated for 30 min at room temperature to allow binding to reach equilibrium. Fluorescence polarization measurements were made using a Victor X5 plate reader (Perkin Elmer) at 25°C with excitation at 490 nm and emission at 535 nm. Data analysis was performed as described above.

Aurora‐A = conditions: whether T288 is phosphorylated or not, ref Bayliss et al, 2003, Eyers et al, Dodson & Bayliss, 2012; cited from earlier work
Description: The activity of Aurora‐A is controlled through phosphorylation of its activation loop on T288 (Bayliss et al, 2003; Eyers et al, 2003). Like many of its other binding partners, such as TPX2, I‐2, HEF1, and N‐Myc, TACC3 is an Aurora‐A activator (Nikonova et al, 2013; Richards et al, 2016). However, only in the case of TPX2 has the mechanism of activation, and how this synergizes with phosphorylation of T288, been resolved (Bayliss et al, 2003; Eyers et al, 2003; Dodson & Bayliss, 2012).

factor of reduction of affinity for CHC 1–574 (CHC 1–574)	Compound	stimulation of Aurora‐A activity (Aurora‐A)
4–5 factor	CC(C)C[C@H](NC(=O)[C@H](C)NC(=O)[C@H](CO)NC(=O)[C@H](CCC(=O)O)NC(=O)[C@H](CCCCN)NC(=O)[C@H](Cc1ccccc1)NC(=O)c1ccc2c(c1)C(=O)OC21c2ccc(O)cc2Oc2cc(O)ccc21)C(=O)N[C@@H](C)C(=O)N[C@@H](C)C(=O)N[C@@H](CCC(N)=O)C(=O)N[C@@H](COP(=O)(O)O)C(=O)N[C@@H](CC(C)C)C(=O)N[C@@H](Cc1ccc(O)cc1)C(=O)N[C@@H](CC(C)C)C(=O)N[C@@H](CCCCN)C(=O)N[C@@H](Cc1ccccc1)C(=O)N[C@@H](CC(=O)O)C(=O)N1CCC[C@H]1C(=O)N[C@@H](CC(C)C)C(=O)N[C@@H](CC(C)C)C(=O)N[C@@H](CCCNC(=N)N)C(=O)N[C@@H](CC(=O)O)C(=O)N[C@@H](CO)C(=O)O [R555A, K556A] (HELM PEPTIDE1{[O=C1OC2(c3ccc(O)cc3Oc3cc(O)ccc32)c2ccc(C(=O)[*:2])cc21].F.K.E.S.A.L.A.A.Q.[O=C([C@H](COP(=O)(O)O)N[*:1])[*:2]].L.Y.L.K.F.D.P.L.L.R.D.S}$$$$V2.0; N-terminus and C-terminus assumed)	
	TPX2 1–43: amino acids 1–43 of TPX2 (MSQVKSSYSYDAPSDFINFSSLDDEGDTQNIDSWFEEKANLEN; UniProt Q9ULW0 1-43, looked up, fragment)	stimulate Aurora‐A activity
